Source: patent US10167262B2, “Herbicidal substituted 3-arylpyrazoles” (FMC CORPORATION, priority 2014, dated 2019)

Tests used:
Type in all cases: in vivo
[1] = system: barnyardgrass (Echinochloa crus-galli); assay: Test B flooded paddy test, plant response rating 0-100; details: Flood, 250 g ai/ha; scale 0 to 100 (0 no effect, 100 complete control); 13 to 15 days
Summary of the method: (§1)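 Flooded 3 cm over soil; compound into paddy water; depth kept constant. Greenhouse 13–15 d.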

[2] = system: ducksalad (Heteranthera limosa); assay: as above; details: Flood, 250 g ai/ha; scale 0 to 100 (0 no effect, 100 complete control); 13 to 15 days
Summary of the method: as §1

rice (Oryza sativa) = assay: as above; details: Flood, 250 g ai/ha; scale 0 to 100 (0 no effect, 100 complete control); 13 to 15 days
Summary of the method: as §1

[3] = system: sedge, umbrella (small-flower umbrella sedge, Cyperus difformis); assay: as above; details: Flood, 250 g ai/ha; scale 0 to 100 (0 no effect, 100 complete control); 13 to 15 days
Summary of the method: as §1

[4] = system: barnyardgrass (Echinochloa crus-galli); assay: Test C pre-/postemergence greenhouse test, plant response rating 0-100
Summary of the method: (§2)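 Formulated in solvent with surfactant, test chemicals were sprayed on seeded loam/sand pots and, concurrently, on young plants 2–18 cm tall. Evaluation: visual, versus controls, day 13–15.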

[5] = system: oilseed rape (Brassica napus); assay: as above
Summary of the method: as §2

[6] = system: waterhemp (common waterhemp, Amaranthus rudis); assay: as above
Summary of the method: as §2

[7] = system: arrowleaf sida (Sida rhombifolia); assay: Test E pre-/postemergence greenhouse test, plant response rating 0-100; details: for Arrowleaf Sida plant response rating: Preemergence
Summary of the method: (§3)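 Greenhouse response on a 0 (none) to 100 (complete control) scale, assessed 14 to 21 days post-treatment. Soil-applied preemergence on silt loam; foliar postemergence on plants 2–18 cm high.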

[8] = system: palmer pigweed (Amaranthus palmeri); assay: as above; details: scale 0 to 100; for Pigweed, Palmer plant response rating: Preemergence
Summary of the method: as §3

[9] = system: waterhemp_RES2, (ALS & HPPD resistant common waterhemp, Amaranthus rudis); assay: Test E postemergence greenhouse test, plant response rating 0-100; details: scale 0 to 100
Summary of the method: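 Resistant waterhemp biotypes grown in peat/vermiculite medium and treated postemergence at 2–18 cm height (1- to 4-leaf stage). Kept in greenhouse 14 to 21 days, then visually rated against untreated controls on a 0–100 scale (0 no effect, 100 complete control).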

[10] = Postemergence, 125 g ai/ha, scale 0 to 100
[11] = Postemergence, 250 g ai/ha, scale 0 to 100
[12] = Postemergence, 500 g ai/ha, scale 0 to 100

## CCOC(OCC)(c1ccccc1)c1c[nH]nc1-c1cc(Cl)cc(Cl)c1 [Compound 14, 3-(3,5-dichlorophenyl)-4-(diethoxyphenylmethyl)-1H-pyrazole]
[1]
  Plant response rating, Barnyardgrass: 0
[2]
  Plant response rating, Ducksalad: 0
Rice (Oryza sativa)
  Plant response rating, Rice: 0
[3]
  Plant response rating, Sedge, Umbrella: 0
[4]; Postemergence, 62 g ai/ha
  Plant response rating (0 to 100), Barnyardgrass: 0
[4]; [10]
  Plant response rating, Barnyardgrass: 0
[4]; [11]
  Plant response rating, Barnyardgrass: 0
[4]; [12]
  Plant response rating, Barnyardgrass: 0
[4]; Preemergence, 62 g ai/ha
  Plant response rating, Barnyardgrass: 0
[4]; Preemergence, 125 g ai/ha
  Plant response rating, Barnyardgrass: 0
[4]; Preemergence, 250 g ai/ha
  Plant response rating, Barnyardgrass: 0
[4]; Preemergence, 500 g ai/ha
  Plant response rating, Barnyardgrass: 0
[5]; Postemergence, 62 g ai/ha
  Plant response rating (0 to 100), Oilseed Rape: 80
[5]; Postemergence, 125 g ai/ha
  Plant response rating (0 to 100), Oilseed Rape: 70
[5]; [11]
  Plant response rating, Oilseed Rape: 95
[5]; [12]
  Plant response rating, Oilseed Rape: 90
[5]; Preemergence, 62 g ai/ha
  Plant response rating, Oilseed Rape: 50
[5]; Preemergence, 125 g ai/ha
  Plant response rating, Oilseed Rape: 90
[5]; Preemergence, 250 g ai/ha
  Plant response rating, Oilseed Rape: 85
[5]; Preemergence, 500 g ai/ha
  Plant response rating, Oilseed Rape: 85
[6]; Postemergence, 62 g ai/ha
  Plant response rating (0 to 100), Waterhemp: 100
[6]; Postemergence, 125 g ai/ha
  Plant response rating (0 to 100), Waterhemp: 95
[6]; [11]
  Plant response rating, Waterhemp: 100
[6]; [12]
  Plant response rating, Waterhemp: 100
[6]; Preemergence, 62 g ai/ha
  Plant response rating, Waterhemp: 100
[6]; Preemergence, 125 g ai/ha
  Plant response rating, Waterhemp: 100
[6]; Preemergence, 250 g ai/ha
  Plant response rating, Waterhemp: 100
[6]; Preemergence, 500 g ai/ha
  Plant response rating, Waterhemp: 100
[7]; Sida rhombifolia, post-emergence, Postemergence, 31 g ai/ha, scale 0 to 100
  pest or weed control at 31 g/ha: 80%
[7]; Sida rhombifolia, post-emergence, Postemergence, 62 g ai/ha, scale 0 to 100
  pest or weed control at 62 g/ha: 90%
[7]; Sida rhombifolia, post-emergence, Postemergence, 125 g ai/ha, scale 0 to 100
  pest or weed control at 125 g/ha: 90%
[7]; Sida rhombifolia, post-emergence, Postemergence, 250 g ai/ha, scale 0 to 100
  pest or weed control at 250 g/ha: 90%
[7]; Sida rhombifolia, post-emergence, Postemergence, 500 g ai/ha, scale 0 to 100 (0 no effect, 100 complete control)
  pest or weed control at 500 g/ha: 95%
[8]; Amaranthus palmeri, post-emergence, Postemergence, 31 g ai/ha
  pest or weed control at 31 g/ha: 80%
[8]; Amaranthus palmeri, post-emergence, Postemergence, 62 g ai/ha
  pest or weed control at 62 g/ha: 90%
[8]; Amaranthus palmeri, post-emergence, Postemergence, 125 g ai/ha
  pest or weed control at 125 g/ha: 95%
[8]; Amaranthus palmeri, post-emergence, Postemergence, 250 g ai/ha
  pest or weed control at 250 g/ha: 100%
[8]; Amaranthus palmeri, post-emergence, Postemergence, 500 g ai/ha
  pest or weed control at 500 g/ha: 100%
[9]; 31 g ai/ha
  Plant response rating, Waterhemp_RES2: 75
[9]; 62 g ai/ha
  Plant response rating, Waterhemp_RES2: 85
[9]; 125 g ai/ha
  Plant response rating, Waterhemp_RES2: 90
[9]; 250 g ai/ha
  Plant response rating, Waterhemp_RES2: 95
[9]; 500 g ai/ha
  Plant response rating, Waterhemp_RES2: 95

## O=Cn1cc(C(=O)c2ccccc2)c(-c2cc(Cl)cc(Cl)c2)n1 [Compound 28]
[1]
  Plant response rating, Barnyardgrass: 0
[2]
  Plant response rating, Ducksalad: 0
Rice (Oryza sativa)
  Plant response rating, Rice: 0
[3]
  Plant response rating, Sedge, Umbrella: 0
[4]; Postemergence, 62 g ai/ha
  Plant response rating (0 to 100), Barnyardgrass: 0
[4]; [10]
  Plant response rating, Barnyardgrass: 0
[4]; [11]
  Plant response rating, Barnyardgrass: 0
[4]; [12]
  Plant response rating, Barnyardgrass: 0
[4]; Preemergence, 62 g ai/ha
  Plant response rating, Barnyardgrass: 0
[4]; Preemergence, 125 g ai/ha
  Plant response rating, Barnyardgrass: 0
[4]; Preemergence, 250 g ai/ha
  Plant response rating, Barnyardgrass: 0
[4]; Preemergence, 500 g ai/ha
  Plant response rating, Barnyardgrass: 0
[5]; Postemergence, 62 g ai/ha
  Plant response rating (0 to 100), Oilseed Rape: 80
[5]; Postemergence, 125 g ai/ha
  Plant response rating (0 to 100), Oilseed Rape: 85
[5]; [11]
  Plant response rating, Oilseed Rape: 85
[5]; [12]
  Plant response rating, Oilseed Rape: 95
[5]; Preemergence, 62 g ai/ha
  Plant response rating, Oilseed Rape: 5
[5]; Preemergence, 125 g ai/ha
  Plant response rating, Oilseed Rape: 30
[5]; Preemergence, 250 g ai/ha
  Plant response rating, Oilseed Rape: 98
[5]; Preemergence, 500 g ai/ha
  Plant response rating, Oilseed Rape: 100
[6]; Postemergence, 62 g ai/ha
  Plant response rating (0 to 100), Waterhemp: 95
[6]; Postemergence, 125 g ai/ha
  Plant response rating (0 to 100), Waterhemp: 98
[6]; [11]
  Plant response rating, Waterhemp: 98
[6]; [12]
  Plant response rating, Waterhemp: 100
[6]; Preemergence, 62 g ai/ha
  Plant response rating, Waterhemp: 100
[6]; Preemergence, 125 g ai/ha
  Plant response rating, Waterhemp: 100
[6]; Preemergence, 250 g ai/ha
  Plant response rating, Waterhemp: 100
[6]; Preemergence, 500 g ai/ha
  Plant response rating, Waterhemp: 100
[7]; Postemergence, 31 g ai/ha, scale 0 to 100
  Plant response rating, Arrowleaf Sida: 65
[7]; Postemergence, 62 g ai/ha, scale 0 to 100
  Plant response rating, Arrowleaf Sida: 60
[7]; [10]
  Plant response rating, Arrowleaf Sida: 75
[7]; [11]
  Plant response rating, Arrowleaf Sida: 85
[7]; Postemergence, 500 g ai/ha, scale 0 to 100 (0 no effect, 100 complete control)
  Plant response rating, Arrowleaf Sida: 90
[7]; 31 g ai/ha, scale 0 to 100
  Arrowleaf Sida plant response rating: 0
[7]; 62 g ai/ha, scale 0 to 100
  Arrowleaf Sida plant response rating: 20
[7]; 125 g ai/ha, scale 0 to 100
  Arrowleaf Sida plant response rating: 75
[7]; 250 g ai/ha, scale 0 to 100
  Arrowleaf Sida plant response rating: 90
[7]; 500 g ai/ha, scale 0 to 100
  Arrowleaf Sida plant response rating: 100
[8]; Postemergence, 31 g ai/ha
  Plant response rating, Pigweed, Palmer: 50
[8]; Postemergence, 62 g ai/ha
  Plant response rating, Pigweed, Palmer: 70
[8]; Postemergence, 125 g ai/ha
  Plant response rating, Pigweed, Palmer: 70
[8]; Postemergence, 250 g ai/ha
  Plant response rating, Pigweed, Palmer: 80
[8]; Postemergence, 500 g ai/ha
  Plant response rating, Pigweed, Palmer: 90
[8]; 31 g ai/ha
  Pigweed, Palmer plant response rating: 0
[8]; 62 g ai/ha
  Pigweed, Palmer plant response rating: 0
[8]; 125 g ai/ha
  Pigweed, Palmer plant response rating: 0
[8]; 250 g ai/ha
  Pigweed, Palmer plant response rating: 25
[8]; 500 g ai/ha
  Pigweed, Palmer plant response rating: 100
[9]; 31 g ai/ha
  Plant response rating, Waterhemp_RES2: 50
[9]; 62 g ai/ha
  Plant response rating, Waterhemp_RES2: 60
[9]; 125 g ai/ha
  Plant response rating, Waterhemp_RES2: 80
[9]; 250 g ai/ha
  Plant response rating, Waterhemp_RES2: 85
[9]; 500 g ai/ha
  Plant response rating, Waterhemp_RES2: 90
